Results taken from ChEMBL document CHEMBL1150099, “An improved source of bryostatin 10, Bugula neritina from the Gulf of Aomori, Japan” (1995).
Converted amounts (≈) assume the structure as drawn. The source made the active and inactive calls. The rule behind the calls is not given here.

Experiments:
[1] = system: P388; assay: Cytotoxicity against mouse P388 cells; type: functional; settings: read-out: ED50 (the source's name)
[2] = system: Echinoidea; assay: Inhibition of fertilization of sea urchin egg at 1 ug/ml; type: functional
[3] = system: Sperm; assay: Inhibition of movement of sea urchin sperm at 1 ug/ml; type: functional, cell-based; settings: Echinoidea
[4] = Inhibition of fertilized sea urchin egg cell division; type: functional; settings: Echinoidea, read-out: ED50 (the source's name)
[5] = Increase in ACTH-induced steroidogenesis in bovine adrenocortical cells measured per 10^5 cells; type: functional, Bos taurus

Structure (SMILES)	EC50 [1]	inhibition [2]	Activity [3]	EC50 [4]	Activity [5]
COC(=O)/C=C1/C[C@H]2C[C@]3(O)O[C@H](C[C@@H](O)CC(=O)O[C@@H]([C@@H](C)OC(C)=O)C[C@@H]4C/C(=C/C(=O)OC)C[C@@](O)(O4)C(C)(C)/C=C/[C@@H](C1)O2)C[C@H](OC(=O)C(C)(C)C)C3(C)C	0.44 µg/mL (≈ 0.517 µM)	80%			
CCC(=O)O[C@H](C)[C@H]1C[C@@H]2C/C(=C/C(=O)OC)C[C@@](O)(O2)C(C)(C)/C=C/[C@H]2C/C(=C\C(=O)OC)C[C@@H](C[C@]3(O)O[C@H](C[C@@H](O)CC(=O)O1)C[C@H](OC(=O)C(C)(C)C)C3(C)C)O2	0.52 µg/mL (≈ 0.601 µM)	80%	Active		
COC(=O)/C=C1\C=C2O[C@@H](C1)C[C@H]([C@@H](C)O)OC(=O)C[C@H](O)C[C@@H]1C[C@H](OC(=O)C(C)(C)C)C(C)(C)[C@](O)(C[C@@H]3C/C(=C/C(=O)OC)C[C@H](/C=C/C2(C)C)O3)O1 [BRYOSTATIN 17]		100%		0.3 µg/mL (≈ 0.379 µM)	
COC(=O)/C=C1/C[C@H]2C[C@]3(O)O[C@H](C[C@@H](O)CC(=O)O[C@@H]([C@@H](C)O)C[C@@H]4C/C(=C\C(=O)OC)C[C@@](O)(O4)C(C)(C)/C=C/[C@@H](C1)O2)C[C@H](OC(=O)C(C)(C)C)C3(C)C [BRYOSTATIN 10]	0.0018 µg/mL (≈ 0.00223 µM)			0.16 µg/mL (≈ 0.198 µM)	1141 pmol/h
CCCC(=O)O[C@H](C)[C@H]1C[C@@H]2C/C(=C/C(=O)OC)C[C@@](O)(O2)C(C)(C)/C=C/[C@H]2C/C(=C\C(=O)OC)C[C@@H](C[C@]3(O)O[C@H](C[C@@H](O)CC(=O)O1)C[C@H](OC(=O)C(C)(C)C)C3(C)C)O2	0.32 µg/mL (≈ 0.364 µM)	80%			
